The record followed here is patent US5488037A, “Antithrombotic agents” (Eli Lilly and Company, priority 1994, dated 1996).

A short description of data set [1]: Index of bioavailability: plasma thrombin time (TT) time course after i.v. bolus and oral treatment of rats. The conditions noted are these: dose-adjusted AUC of plasma TT, p.o. (fasted conscious rats) relative to i.v. bolus (anesthetized rats). Type of data set: in vivo, rat. From the text:
Assays are done in duplicate and averaged.
Each sample population represents alternating sequential time points.

For data set [2], the target named is human thrombin (Homo sapiens, UniProt P00734). In words: Inhibition of the amidase activity of human thrombin (chromogenic substrate, Kass). The note with it: apparent association constant, mean over a range of test compound concentrations; purified human thrombin, substrate N-benzoyl-Phe-Val-Arg-p-nitroanilide, pH 7.4. Type of data set: biochemical. As to the method: The assay is carried out by mixing 50 μl buffer (0.03M Tris, 0.15M NaCl, pH 7.4) with 25 μl of human thrombin solution (purified human thrombin, Enzyme Research Laboratories, South Bend, Ind., at 8 NIH units/ml) and 25 μl of test compound in a solvent (50% aqueous methanol (v:v)). Then 150 μl of an aqueous solution of the chromogenic substrate (at 0.25 mg/ml) are added and the rates of hydrolysis of the substrate are measured by monitoring the reactions at 405 nm for the release of p-nitroaniline. Standard curves are constructed by plotting free thrombin concentration against hydrolysis rate. The hydrolysis rates observed with test compounds are then converted to "free thrombin" values in the respective assays by use of the standard curves. The bound thrombin (bound to test compound) is calculated by subtracting the amount of free thrombin observed in each assay from the known initial amount of thrombin used in the assay. The amount of free inhibitor in each assay is calculated by subtracting the number of moles of bound thrombin from the number of moles of added inhibitor (test compound).
The Kass value is the hypothetical equilibrium constant for the reaction between thrombin and the test compound (I). [drawing 45]
Kass is calculated for a range of concentrations of test compounds and the mean value reported in units of liter per mole.

Turning to `CNC(CC(=O)N1CCC[C@H]1C(=O)N[C@H](C=O)CCCNC(=N)N)c1ccccc1.Cl.Cl.O.O` (stereo partly drawn) [Example 1, N-methyl-3-amino-3-phenylpropionyl-L-Prolinyl-L-Arginine Aldehyde Dihydrochloride Dihydrate], the “Index of Bioavailability, Percent Relative Activity” value (shortened to “Index … Percent Relative Activity”) in data set [1] was determined as 28%. The “Human Thrombin Inhibition Levels, Kass × 10^6 (l/mole)” value (“Human Thrombin Inhibition Levels” below) in data set [2] is 70 × 10^6 l/mole.

For `Cl.Cl.N=C(N)NCCC[C@@H](C=O)NC(=O)[C@@H]1CCCN1C(=O)CN1CCCCC1.O` [Example 4, 2-(2-Piperidino)acetyl-L-Pro-L-Arginine Aldehyde Dihydrochloride Monohydrate], the “Human Thrombin Inhibition Levels” value in data set [2] is 1 × 10^6 l/mole.

`CNCC(Cc1ccccc1)C(=O)N1CCC[C@H]1C(=O)N[C@H](C=O)CCCNC(=N)N.Cl.Cl.O` (stereo partly drawn) [Example 3, N-Methyl-3-amino-2-benzylpropionyl-L-Pro-L-Arg Aldehyde Dihydrochloride Monohydrate]: in data set [1], the “Index … Percent Relative Activity” value came out at 8%. The “Human Thrombin Inhibition Levels” value in data set [2] is given as 12 × 10^6 l/mole.

For the compound `Cl.Cl.N=C(N)NCCC[C@@H](C=O)NC(=O)[C@@H]1CCCN1C(=O)C1CNC2CCCCC21.O` (stereo partly drawn) [Example 6, 3-perhydroindolylcarbonyl-L-Pro-L-Arginine Aldehyde Dihydrochloride Monohydrate], the “Human Thrombin Inhibition Levels” value in data set [2] is 11 × 10^6 l/mole.

For `CNC(CC(=O)N1CCC[C@H]1C(=O)N[C@H](C=O)CCCNC(=N)N)C1CCCCC1.CNC(CC(=O)N1CCC[C@H]1C(=O)N[C@H](C=O)CCCNC(=N)N)C1CCCCC1.Cl.Cl.Cl.Cl.O` (stereo partly drawn) [Example 2, N-methyl-3-amino-3-cyclohexyl propionyl-L-Pro-L-Arg aldehyde dihydrochloride hemihydrate], the “Index … Percent Relative Activity” value in data set [1] is 19%. Further, the “Human Thrombin Inhibition Levels” value in data set [2] was 85 × 10^6 l/mole.

Regarding `CNC1CCCCC1C(=O)N1CCC[C@H]1C(=O)N[C@H](C=O)CCCNC(=N)N.Cl.Cl` (stereo partly drawn) [Example 7, 2-(N-methyl)aminocyclohexyl-carbonyl-L-Pro-L-Arginine Aldehyde Dihydrochloride], in data set [2], the “Human Thrombin Inhibition Levels” value is 18.4 × 10^6 l/mole.

Consider `Cl.Cl.N=C(N)NCCC[C@@H](C=O)NC(=O)[C@@H]1CCCN1C(=O)C1CCCNC1.O` (stereo partly drawn) [Example 5, 3-piperidinocarbonyl-L-Pro-L-Arginine Aldehyde Dihydrochloride Monohydrate], for which the “Human Thrombin Inhibition Levels” value in data set [2] was 2 × 10^6 l/mole.

With `Cl.Cl.Cl.N=C(N)NCCC[C@@H](C=O)NC(=O)[C@@H]1CCCN1C(=O)C1CCCCC1N.O` (stereo partly drawn) [Example 8, 2-aminocyclohexylcarbonyl-L-Pro-L-Arginine Aldehyde Trihydrochloride Monohydrate], in data set [1], the “Index … Percent Relative Activity” value amounted to 15%. Also, the “Human Thrombin Inhibition Levels” value in data set [2] is on record as 39 × 10^6 l/mole.
